Like-named read-outs stand apart in the source and are kept apart here.
Legend:
[1] = test system: Enterococcus faecalis (OG1RF); test: Minimum inhibitory concentration (MIC), broth microdilution; format: cell-based; details: read-out: MIC E. faecalis
Description: (§1) The term “minimum inhibitory concentration (MIC)” means the lowest concentration of an antimicrobial agent that will inhibit the visible growth of a microorganism after overnight incubation. MIC values against bacteria, for example, the Gram-positive Staphylococcus aureus and Enterococcus faecalis and the Gram-negative Escherichia coli and Pseudomonas aeruginosa were determined by standard methods.
(§2) With nearly three-dozen amphiphiles varying in structure and cationic nature synthesized, minimum inhibitory concentration (MIC) values against the Gram-positive Staphylococcus aureus and Enterococcus faecalis and the Gram-negative Escherichia coli and Pseudomonas aeruginosa were determined by standard methods. […] The commercially available antibacterial agent benzalkonium chloride (benzyldimethyldodecylammonium chloride, Bn,12) was tested for comparison. The broth microdilution for determining MIC values was performed as previously reported.
(§3) Different biological assays were performed. […] All cultures, with the exception of E. faecalis, were grown with shaking at 250 rpm.
(§4) Minimum inhibitory concentration (MIC) values against bacteria were measured using standard method. Compounds were serially diluted two-fold from an aqueous stock solution to yield twelve test concentrations. Overnight S. aureus, E. faecalis, E. coli, P. aeruginosa, CA-MRSA, and HA-MRSA cultures diluted to ca. 10^6 cfu/mL in Mueller-Hinton media and 100 μL were inoculated into each well of a U-bottom 96-well plate (BD Biosciences, BD351177) containing 100 μL of compound solution. Plates were incubated statically at 37° C. for 72 hours upon which time wells were evaluated visually for bacterial growth. The MIC was determined as the lowest concentration of compound resulting in no bacterial growth visible to the naked eye, based on the majority of three independent experiments. Positive and negative aqueous and media controls were conducted for each trial.

[2] = test system: Escherichia coli (MC4100); test: as above; format: cell-based; details: read-out: MIC E. coli
Description: as §1, §2, §3, §4

[3] = test system: Pseudomonas aeruginosa (PAO1); test: as above; format: cell-based
Description: as §1, §2, §3, §4

[4] = test system: Staphylococcus aureus MSSA (SH1000); test: as above; format: cell-based; details: read-out: MIC S. aureus
Description: as §1, §2, §3, §4

[5] = test system: S. aureus (MSSA, SH1000) biofilms; test: Minimum biofilm eradication concentration (MBEC), regrowth assay; format: cell-based, Staphylococcus aureus; details: for MBEC S. aureus: Table 2, pre-established biofilm, ± values varied between 50 and 100 μM for the six trials; for eradication of S. aureus biofilms (in words): at the concentrations tested
Excerpt: (§5) A regrowth assay was used to establish the MBEC of a compound to evaluate the antibiofilm activity. See also H. Ceri, M. Olson, D. Morck, D. Storey, R. Read, A. Buret, B. Olson, Methods Enzymol. 2001, 337, 377.
(§6) Encouraged by the potency of the QACs against planktonic bacterial cells, the inventors then evaluated the efficacy of compound (12,2,12) against Staphylococcus aureus and Enterococcus faecalis biofilms. […] To both accurately evaluate the antibiofilm activity, a regrowth assay was utilized to establish the minimum biofilm eradication concentration (MBEC) of each compound.
(§7) Different biological assays were performed. For all biological assays, laboratory strains of methicillin-susceptible Staphylococcus aureus MSSA (SH1000), Enterococcus faecalis (OG1RF), Escherichia coli (MC4100), Pseudomonas aeruginosa (PAO1), community-acquired methicillin-resistant Staphylococcus aureus CA-MRSA (USA300-0114), and hospital-acquired methicillin-resistant Staphylococcus aureus HA-MRSA (ATCC 33591) were grown at 37° C. overnight from freezer stocks in 10 mL of the media indicated for each assay. All cultures, with the exception of E. faecalis, were grown with shaking at 250 rpm.
(§8) Minimum biofilm eradication concentration (MBEC) was also measured. To each well of a flat-bottomed 96-well plate (Corning 3370), 8 μL of overnight bacterial culture was brought to a volume of 200 μL with fresh media (BHI for S. aureus and MRSA, Todd Hewitt (TH) for E. faecalis). Plates were incubated statically for 24 hours at 37° C. to establish biofilms. After 24 hours, the wells were carefully emptied by inverting the plate and gently shaking. A pre-mixed solution of media and aqueous compound stock solution was added to each well and plates were incubated at 37° C. 16 hours after pre-established biofilms were treated with compound, the media from each well was removed, biofilms were washed three times with 200 μL PBS to remove planktonic cells, and biofilms were incubated overnight at 37° C. in 200 μL of fresh media to allow any viable cells to continue growing. The wells were then vigorously pipetted to resuspend the biofilm cells and the OD at 595 nm was measured using a plate reader (POLARstar Omega, BMG Labtech). Biofilms reaching a final OD of less than 0.1 were considered eradicated and the lowest concentration of antibiotic corresponded to the MBEC. Four replicates were completed for each concentration of compound as well as positive and negative controls.

E. faecalis biofilms = test: as above; format: cell-based, Enterococcus faecalis; details: for MBEC E. faecalis: Table 2, pre-established biofilm, ± values varied between 50 and 100 μM for the six trials; for eradication of E. faecalis biofilms (in words): at the concentrations tested
Excerpt: as §5, §6, §7, §8

[6] = Table 3, read-out: MIC P. aeruginosa
[7] = Pseudomonas aeruginosa, PAO1, read-out: MIC P. aeruginosa
[8] = Table 1, read-out: MIC P. aeruginosa

Row | SMILES | MIC ([1]; Table 3) [µM] | MIC ([2]; Table 3) [µM] | MIC [3, 6] [µM] | MIC ([4]; Table 3) [µM] | further results
1 | CCCCCCCCCCCCCCCC[N+](C)(C)CCN(C)CC[N+](C)(C)CCCCCCCCCCCCCCCC.[Br-].[Br-] [16, 2, 0, 2, 16] | 2 | 16 | 32 | 4 | 
2 | NCCCNCCCN [Norspermidine, reference compound] |  |  |  |  | MIC ([1]; Enterococcus faecalis): > 500 µM; MIC ([2]; Escherichia coli): > 500 µM; MIC [3, 7]: > 500 µM; MIC ([4]; Staphylococcus aureus, MSSA): > 500 µM; MBEC S. aureus [5]: >200 µM; MBEC E. faecalis (E. faecalis biofilms): >200 µM
3 | CCCCCCCCCC[N+](C)(C)CCN(C)CC[N+](C)(C)CCCCCCCCCC.[Br-].[Br-] [10, 2, 0, 2, 10] | 8 | 8 | 63 | 2 | 
4 | CCCCCCCCCC[N+](C)(C)CCCCC[N+](C)(C)CCCCCCCCCC.[Br-].[Br-] [10, 5, 10] | 4 | 8 | 63 | 2 | 
5 | CCCCCCCCCCCCCC[N+](C)(C)CCN(C)CCN(C)CC[N+](C)(C)CCCCCCCCCCCC.[Br-].[Br-] [N4-14,0,0, 12] | 1 | 2 | 8 | 1 | 
6 | CCCCCCCCCC[N+](C)(C)CC[N+](C)(C)CC[N+](C)(C)CCCCCCCCCC.[Br-].[Br-].[I-] [10, 2, 1, 2, 10] | 8 | 8 | 63 | 2 | 
7 | C=CC[N+](C)(CC[N+](C)(C)CCCCCCCCCCCCCCCC)CC[N+](C)(C)CCCCCCCCCCCCCCCC.[Br-].[Br-].[Br-] [16, 2, 3A, 2, 16] | 4 | 8 | 16 | 4 | 
8 | CCCCCCCCCCC[N+](C)(C)CCN(C)CC[N+](C)(C)CCCCCCCCCCC.[Br-].[Br-] [11, 2, 0, 2, 11] | 2 | 2 | 8 | 2 | 
9 | C[N+](C)(C)CCCCC[N+](C)(C)C [1,5,1] |  |  |  |  | MIC ([1]; Table 1): >500 µM; MIC ([2]; Table 1): >500 µM; MIC [3, 8]: >500 µM; MIC ([4]; Table 1): >500 µM; MBEC S. aureus [5]: >200 µM; eradication of S. aureus biofilms (in words) [5]: unable to eradicate biofilms; MBEC E. faecalis (E. faecalis biofilms): >200 µM; eradication of E. faecalis biofilms (in words) (E. faecalis biofilms): unable to eradicate biofilms
10 | C=CC[N+](C)(CC[N+](C)(C)CCCCCCCCCCCCCC)CC[N+](C)(C)CCCCCCCCCCCCCC.[Br-].[Br-].[Br-] [14, 2, 3A, 2, 14] | 2 | 2 | 8 | 2 | 
11 | C[N+](C)(C)CC[N+](C)(C)C [1,2,1] |  |  |  |  | MIC ([1]; Table 1): >500 µM; MIC ([2]; Table 1): >500 µM; MIC [3, 8]: >500 µM; MIC ([4]; Table 1): >500 µM; MBEC S. aureus [5]: >200 µM; eradication of S. aureus biofilms (in words) [5]: unable to eradicate biofilms; MBEC E. faecalis (E. faecalis biofilms): >200 µM; eradication of E. faecalis biofilms (in words) (E. faecalis biofilms): unable to eradicate biofilms
12 | CCCCCCCCCCCCCC[N+](C)(C)CCCCC[N+](C)(C)CCCCCCCCCCCCCC.[Br-].[Br-] [14, 5, 14] | 1 | 4 | 16 | 1 | 
13 | CCCCCCCCCCCC[N+](C)(C)CCCCCCC[N+](C)(C)CCCCCCCCCCCC.[Br-].[Br-] [12, 7, 12] | 1 | 2 | 8 | 1 | 
14 | CCCCCCCCCCCC[N+](C)(C)CCN(C)CCN(C)CCN(C)C.[Br-] [N4-12,0,0, 0] | 8 | 8 | 32 | 8 | 
15 | CCCCCCCCCCC[N+](C)(C)CC[N+](C)(C)CC[N+](C)(C)CCCCCCCCCCC.[Br-].[Br-].[I-] [11, 2, 1, 2, 11] | 2 | 4 | 8 | 2 | 
16 | C=CC[N+](C)(CC[N+](C)(C)CCCCCCCCCC)CC[N+](C)(C)CCCCCCCCCC.[Br-].[Br-].[Br-] [10, 2, 3A, 2, 10] | 4 | 2 | 63 | 2 | 
17 | C=CC[N+](C)(CC[N+](C)(C)CCCCCCCCCCC)CC[N+](C)(C)CCCCCCCCCCC.[Br-].[Br-].[Br-] [11, 2, 3A, 2, 11] | 2 | 2 | 16 | 1 | 
18 | CCCCCCCCCCCCCC[N+](C)(C)CCN(C)CCN(C)CC[N+](C)(C)CCCCCCCCCCCCCC.[Br-].[Br-] [N4-14,0,0, 14] | 1 | 2 | 16 | 2 | 
19 | CCCCCCCCCCCCCC[N+](C)(C)CCN(C)CCN(C)CCN(C)C.[Br-] [N4-14,0,0, 0] | 16 | 32 | 125 | 16 | 
20 | CCCCCCCCCCCC[N+](C)(C)CCCCCCCCCCCC.[Br-] [12,12] |  |  |  |  | MIC ([1]; Table 1): 1 µM; MIC ([2]; Table 1): 8 µM; MIC [3, 8]: 32 µM; MIC ([4]; Table 1): 1 µM; MBEC S. aureus [5]: >200 µM; MBEC E. faecalis (E. faecalis biofilms): 200 µM
21 | CCCCCCCCCCC[n+]1ccc(-c2cc[n+](CCCCCCCCCCC)cc2)cc1 [PQ-11,11] |  |  |  |  | MIC ([1]; Enterococcus faecalis): 1 µM; MIC ([2]; Escherichia coli): 1 µM; MIC [3, 7]: 4 µM; MIC ([4]; Staphylococcus aureus, MSSA): 1 µM; MBEC S. aureus [5]: 50 µM; MBEC E. faecalis (E. faecalis biofilms): 50 µM
22 | CCCCCCCCCCCCCC[N+](C)(C)CCN(C)CC[N+](C)(C)CCCCCCCCCCCCCC.[Br-].[Br-] [14, 2, 0, 2, 14] | 1 | 4 | 16 | 2 | 
23 | CCCCCCCCCCCCCC[N+](C)(C)CC[N+](C)(C)CC[N+](C)(C)CCCCCCCCCCCCCC.[Br-].[Br-].[I-] [14, 2, 1, 2, 14] | 1 | 2 | 8 | 1 | 

From patent US10398142B2, “Polycationic amphiphiles as antimicrobial agents” (priority 2013, dated 2019)
